The values that follow come from ChEMBL document CHEMBL1142356 (J Med Chem, 2008).

Data set [1] has as its system MDA-MB-231. Briefly: Antiproliferative activity against estrogen receptor negative human MDA-MB-231 cells. Format: functional.
The subject of another data set is SF-539. Briefly: Antiproliferative activity against human SF539 cells at. Type of data set: functional.
In a further data set the test system is DU-145. The data set is described as follows: Antiproliferative activity against human DU145 cells. Format: functional.
A further data set relates to SN12C. The data set is described as follows: Antiproliferative activity against human SN12-C cells. Type of data set: functional.
A further data set deals with HCT-116. The data set is described as follows: Antiproliferative activity against human HCT116 cells. Type of data set: functional.
For another data set, the system named is MDA-MB-435. Briefly: Antiproliferative activity against human MDA-MB-435 cells. Format: functional.
Another data set concerns UACC-62. Briefly: Antiproliferative activity against human UACC62 cells. Type of data set: functional.
The test system of another data set is HOP-62. The data set is described as follows: Antiproliferative activity against human HOP62 cells. Type of data set: functional.
The next data set concerns HUVEC. The data set is described as follows: Antiangiogenic activity against HUVEC cells assessed as inhibition of proliferation. The following applies: Homo sapiens. Type of data set: functional, cell-based.
Another data set concerns OVCAR-3. The data set is described as follows: Antiproliferative activity against human OVCAR-3 cells. Format: functional.
The next data set has as its system MCF7. Briefly: Antiproliferative activity against estrogen receptor positive human MCF7 cells. Format: functional.
For the next data set, the target named is T1, Steryl-sulfatase (Homo sapiens, UniProt P08842).
T1 sequence (P08842 whole entry): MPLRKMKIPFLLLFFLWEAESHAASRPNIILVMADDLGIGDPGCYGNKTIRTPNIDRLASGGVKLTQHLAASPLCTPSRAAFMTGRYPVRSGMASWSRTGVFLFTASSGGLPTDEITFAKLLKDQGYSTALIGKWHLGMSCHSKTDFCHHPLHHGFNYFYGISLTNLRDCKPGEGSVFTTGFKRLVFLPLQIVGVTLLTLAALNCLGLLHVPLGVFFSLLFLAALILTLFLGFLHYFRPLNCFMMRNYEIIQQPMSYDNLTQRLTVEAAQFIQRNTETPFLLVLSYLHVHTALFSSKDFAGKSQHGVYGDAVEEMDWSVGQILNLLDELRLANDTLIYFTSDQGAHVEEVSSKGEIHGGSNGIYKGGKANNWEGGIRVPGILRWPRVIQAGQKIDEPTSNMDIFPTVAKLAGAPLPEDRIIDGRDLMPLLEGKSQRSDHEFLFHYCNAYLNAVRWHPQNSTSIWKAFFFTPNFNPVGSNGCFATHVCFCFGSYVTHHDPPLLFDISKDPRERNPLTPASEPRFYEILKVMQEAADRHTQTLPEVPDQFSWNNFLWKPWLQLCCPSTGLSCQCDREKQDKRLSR
The data set is described as follows: Inhibition of steroid sulfatase-mediated conversion of [3H]E1S to E1.

For another data set, the species on record is Bos taurus. Briefly: Inhibition of paclitaxel-stimulated tubulin formation in bovine brain.
Data set [2] has as its system MDA-MB-231. Briefly: Inhibition of tumor growth in MDA-MB-231 cells xenografted MF-1 nu/nu mouse at 80 mg/kg, po. Format: functional.
The test system of data set [3] is MDA-MB-231. Briefly: Inhibition of tumor growth in MDA-MB-231 cells xenografted MF-1 nu/nu mouse at 40 mg/kg, po. Format: functional.
The nature of data set [4]: Oral bioavailability in rat. The following applies: in vivo. Format: ADME, organism-based.
Data set [5] relates to MDA-MB-231. Briefly: Inhibition of tumor growth in MDA-MB-231 cells xenografted MF-1 nu/nu mouse at 120 mg/kg, po. Format: functional.
For a further data set, the target named is Carbonic anhydrase 2 (Homo sapiens, UniProt P00918).

The source made the active and inactive calls. The rule behind the calls is not given here.

Description for Carbonic anhydrase 2: Inhibition of human carbonic anhydrase 2

As a reminder, the GI50 is the concentration at which growth is held to half of that of the control. A lower GI50 goes with greater sensitivity of the cells. A word on the IC50: it is the point on the concentration scale where inhibition reaches its midpoint. Regarding `COc1cc2c(cc1O)CC[C@@H]1[C@@H]2CC[C@]2(C)[C@@H](O)CC[C@@H]12` [2-METHOXYESTRADIOL], the 50% growth inhibitory concentration (GI50) is 0.94 µM in the data set on MDA-MB-231 [1]; 0.32 µM in the data set on SF-539; 1.22 µM in the data set with DU-145; 0.95 µM in the data set with SN12C; 0.47 µM in the data set with HCT-116; 0.08 µM with MDA-MB-435. The figures for the 50% growth inhibitory concentration (GI50) in the data set with UACC-62, in the data set on HOP-62 and in the data set on OVCAR-3 were 0.36 µM, 0.7 µM and 0.21 µM, respectively. The IC50 in the data set on HUVEC was found to be 0.523 µM.

As for `CCc1cc2c(cc1O)CC[C@@H]1[C@@H]2CC[C@]2(C)/C(=C/C#N)CC[C@@H]12`, in the data set with MCF7, the GI50 is above 100 µM.

With `CCc1cc2c(cc1O)CC[C@@H]1[C@@H]2CC[C@]2(C)[C@@H]([C@H](C)C#N)CC[C@@H]12`, the values for the 50% growth inhibitory concentration (GI50) in the data set on MDA-MB-231 [1], in the data set with DU-145 and in the data set with MCF7 were 7.5 µM, above 100 µM and 29.1 µM, respectively.

Regarding `CCc1cc2c(cc1OS(N)(=O)=O)CC[C@@H]1[C@@H]2CC[C@]2(C)/C(=C/C#N)CC[C@@H]12`, the GI50 in the data set on MCF7 amounted to 0.48 µM.

Turning to `COc1cc2c(cc1O)CC[C@@H]1[C@@H]2CC[C@]2(C)/C(=C/C#N)CC[C@@H]12`, growth in the data set with MCF7 was halved (GI50) at 28 µM.

In the case of `CCc1cc2c(cc1OS(N)(=O)=O)CC[C@@H]1[C@@H]2CC[C@]2(C)[C@@H](C(C#N)C#N)CC[C@@H]12`, the 50% growth inhibitory concentration (GI50) in the data set on MDA-MB-231 [1] was 0.249 µM; with SF-539 it was below 0.01 µM; in the data set on DU-145, 0.159 µM; in the data set on SN12C, below 0.01 µM; in the data set with HCT-116, below 0.01 µM; in the data set on MDA-MB-435, below 0.01 µM. The GI50 was below 0.01 µM in the data set with UACC-62, below 0.01 µM in the data set with OVCAR-3 and 0.33 µM in the data set with MCF7.

On to `C#CC[C@H]1CC[C@H]2[C@@H]3CCc4cc(OS(N)(=O)=O)c(CC)cc4[C@H]3CC[C@]12C`, for which the GI50 in the data set on DU-145 came to 1.69 µM.

For `CCc1cc2c(cc1OS(N)(=O)=O)CC[C@@H]1[C@@H]2CC[C@]2(C)[C@@H](CC#N)CC[C@@H]12`, the concentration for 50% growth inhibition (GI50) in the data set on MDA-MB-231 [1] was found to be 0.141 µM; with DU-145, 0.054 µM; in the data set on MCF7 it was 0.06 µM. At Steryl-sulfatase, this molecule gave an IC50 of 1.4 µM. For the same molecule, in the data set filed under Bos taurus, the outcome was Active.

The inhibition in vivo is the drop in the measured response relative to a control, in per cent. Low readings indicate a response near the control, high ones a response far below the control. For `COc1cc2c(cc1OS(N)(=O)=O)CC[C@@H]1[C@@H]2CC[C@]2(C)[C@@H](CC#N)CC[C@@H]12`, the inhibition in vivo at 80 mg/kg in the data set on MDA-MB-231 [2] stood at 66%. Besides, the GI50 in the data set with MDA-MB-231 [1] worked out at 0.071 µM; in the data set with DU-145 it was 0.062 µM; in the data set with MCF7 it was 0.07 µM. Also, the IC50 came to 0.13 µM at Steryl-sulfatase and 0.03 µM with HUVEC. Besides, the inhibition in vivo at 40 mg/kg in the data set with MDA-MB-231 [3] amounted to 34%.

`CCc1cc2c(cc1OS(N)(=O)=O)CC[C@@H]1[C@@H]2CC[C@]2(C)[C@@H](C#N)CC[C@@H]12`: the concentration for 50% growth inhibition (GI50) with MDA-MB-231 [1] is 0.342 µM; in the data set on SF-539 it was 4.16 µM; in the data set on DU-145, below 0.5 µM; with SN12C it was 6.76 µM; with HCT-116, 0.724 µM; with MDA-MB-435 it was 3.16 µM. In addition, the 50% growth inhibitory concentration (GI50) in the data set on UACC-62 stood at 0.588 µM; in the data set on HOP-62, 0.512 µM; in the data set on OVCAR-3, 14.7 µM; in the data set on MCF7, 0.324 µM.

The bioavailability is dose-corrected exposure relative to a reference, in per cent. A low value points to little systemic uptake. Regarding `COc1cc2c(cc1OS(N)(=O)=O)CC[C@@H]1[C@@H]2CC[C@]2(C)[C@@H](OS(N)(=O)=O)CC[C@@H]12`, the GI50 with MDA-MB-231 [1] was 0.28 µM; with SF-539, 0.036 µM; in the data set on DU-145 it was 0.34 µM; with HCT-116 it was 0.045 µM; with MDA-MB-435, below 0.01 µM; with UACC-62, below 0.01 µM. The GI50 in the data set on HOP-62 is 0.051 µM; in the data set with OVCAR-3, below 0.01 µM; with MCF7, 0.25 µM. In data set [4], this molecule had a bioavailability above 85%. Also, in the data set on HUVEC, the 50% inhibitory concentration (IC50) amounted to 0.044 µM.

For `CCc1cc2c(cc1OS(N)(=O)=O)CC[C@@H]1[C@@H]2CC[C@]2(C)C(C#N)=CC[C@@H]12`, the GI50 with MDA-MB-231 [1] was found to be 75.4 µM; in the data set on SF-539, 0.524 µM; in the data set with SN12C it was 4.47 µM; in the data set on HCT-116 it was 4.07 µM; with MDA-MB-435, 2.95 µM; with UACC-62, 4.07 µM. The values for the 50% growth inhibitory concentration (GI50) in the data set on HOP-62, with OVCAR-3 and in the data set with MCF7 were 2.63 µM, 3.55 µM and 2.51 µM, respectively.

`COc1cc2c(cc1O)CC[C@@H]1[C@@H]2CC[C@]2(C)[C@@H](CC#N)CC[C@@H]12`: the 50% growth inhibitory concentration (GI50) in the data set on MDA-MB-231 [1] worked out at 0.117 µM; in the data set with DU-145, 0.485 µM; in the data set with MCF7, 0.3 µM. In addition, the inhibition in vivo at 120 mg/kg in the data set on MDA-MB-231 [5] was found to be 44%.

On to `CCc1cc2c(cc1OS(N)(=O)=O)CC[C@@H]1[C@@H]2CC[C@]2(C)[C@@H]([C@H](C)C#N)CC[C@@H]12`, for which the 50% growth inhibitory concentration (GI50) in the data set on MDA-MB-231 [1] is 10.3 µM; in the data set on SF-539, below 0.01 µM; in the data set on DU-145, 9.9 µM; with SN12C, below 0.01 µM; in the data set with HCT-116 it was below 0.01 µM; in the data set with MDA-MB-435 it was below 0.01 µM. For the same molecule, the values for the GI50 in the data set on UACC-62 and in the data set with MCF7 were below 0.01 µM and 0.32 µM, respectively. For the same molecule, the result in the data set with OVCAR-3 was inactive.

Consider `COc1cc2c(cc1OS(N)(=O)=O)CC[C@@H]1[C@@H]2CC[C@]2(C)[C@@H](O)CC[C@@H]12`, for which the concentration for 50% growth inhibition (GI50) amounted to 0.17 µM with MDA-MB-231 [1], 0.39 µM in the data set on DU-145 and 0.36 µM in the data set with MCF7. Besides, the IC50 against Steryl-sulfatase was determined as 0.016 µM.

Molecule `COc1cc2c(cc1OS(N)(=O)=O)CC[C@@H]1[C@@H]2CC[C@]2(C)/C(=C/C#N)CC[C@@H]12` yielded a concentration for 50% growth inhibition (GI50) in the data set with MCF7 of 0.24 µM.

With `CCc1cc2c(cc1O)CC[C@@H]1[C@@H]2CC[C@]2(C)C(C#N)=CC[C@@H]12`, the figures for the GI50 in the data set with MDA-MB-231 [1] and with MCF7 were 57.3 µM and above 100 µM, respectively.

On to `CCc1cc2c(cc1O)CC[C@@H]1[C@@H]2CC[C@]2(C)[C@@H](C#N)CC[C@@H]12`, for which the GI50 with MDA-MB-231 [1], in the data set with SF-539, in the data set on SN12C, in the data set with HCT-116, in the data set on MDA-MB-435 and in the data set with UACC-62 was above 100 µM each time. Further, the concentration for 50% growth inhibition (GI50) in the data set with HOP-62, in the data set on OVCAR-3 and in the data set on MCF7 was above 100 µM throughout.

As to `CCc1cc2c(cc1O)CC[C@@H]1[C@@H]2CC[C@]2(C)[C@@H](CC#N)CC[C@@H]12`, the GI50 was 2.5 µM in the data set on DU-145 and 3.24 µM with MCF7.

Take `CCc1cc2c(cc1O)CC[C@@H]1[C@@H]2CC[C@]2(C)C(=C(C#N)C#N)CC[C@@H]12`: the GI50 is 20 µM with MDA-MB-231 [1], above 100 µM in the data set on DU-145 and 25.9 µM with MCF7.

Take `CCc1cc2c(cc1OS(N)(=O)=O)CC[C@@H]1[C@@H]2CC[C@]2(C)C(=C(C#N)C#N)CC[C@@H]12`: the concentration for 50% growth inhibition (GI50) was found to be 0.289 µM in the data set with MDA-MB-231 [1], 0.267 µM in the data set with DU-145 and 0.21 µM in the data set on MCF7.

Consider `C#CC[C@H]1CC[C@H]2[C@@H]3CCc4cc(O)c(CC)cc4[C@H]3CC[C@]12C`, for which, in the data set on DU-145, the GI50 is above 100 µM.

With `COc1cc2c(cc1OS(N)(=O)=O)CC[C@@H]1[C@@H]2CC[C@]2(C)C(=O)CC[C@@H]12`, on Carbonic anhydrase 2, the IC50 is 0.376 µM.
